ChEMBL document CHEMBL3886193, “Bicyclic sulfonamide compounds as sodium channel inhibitors” (2015)
pIC50: −log10 of the molar value. Several values for one entry are separate records, joined by “and”; a condition that tells them apart may be missing. Identical values can stand only once.

Biological target: Sodium channel protein type 9 subunit alpha (Homo sapiens, UniProt Q15858)
Experiment: Compound effects were measured on a partially inactivated state of the sodium channel. Cells were clamped to a holding potential yielding 20 to 50% inactivation. To elicit sodium current, channels were activated by pulsing to -10 mV for 20 msec. This voltage protocol was repeated at a rate of 0.1 Hz throughout the experiment.
Assay type: cell-based, Sf9

Sequence of Sodium channel protein type 9 subunit alpha (Q15858 whole entry): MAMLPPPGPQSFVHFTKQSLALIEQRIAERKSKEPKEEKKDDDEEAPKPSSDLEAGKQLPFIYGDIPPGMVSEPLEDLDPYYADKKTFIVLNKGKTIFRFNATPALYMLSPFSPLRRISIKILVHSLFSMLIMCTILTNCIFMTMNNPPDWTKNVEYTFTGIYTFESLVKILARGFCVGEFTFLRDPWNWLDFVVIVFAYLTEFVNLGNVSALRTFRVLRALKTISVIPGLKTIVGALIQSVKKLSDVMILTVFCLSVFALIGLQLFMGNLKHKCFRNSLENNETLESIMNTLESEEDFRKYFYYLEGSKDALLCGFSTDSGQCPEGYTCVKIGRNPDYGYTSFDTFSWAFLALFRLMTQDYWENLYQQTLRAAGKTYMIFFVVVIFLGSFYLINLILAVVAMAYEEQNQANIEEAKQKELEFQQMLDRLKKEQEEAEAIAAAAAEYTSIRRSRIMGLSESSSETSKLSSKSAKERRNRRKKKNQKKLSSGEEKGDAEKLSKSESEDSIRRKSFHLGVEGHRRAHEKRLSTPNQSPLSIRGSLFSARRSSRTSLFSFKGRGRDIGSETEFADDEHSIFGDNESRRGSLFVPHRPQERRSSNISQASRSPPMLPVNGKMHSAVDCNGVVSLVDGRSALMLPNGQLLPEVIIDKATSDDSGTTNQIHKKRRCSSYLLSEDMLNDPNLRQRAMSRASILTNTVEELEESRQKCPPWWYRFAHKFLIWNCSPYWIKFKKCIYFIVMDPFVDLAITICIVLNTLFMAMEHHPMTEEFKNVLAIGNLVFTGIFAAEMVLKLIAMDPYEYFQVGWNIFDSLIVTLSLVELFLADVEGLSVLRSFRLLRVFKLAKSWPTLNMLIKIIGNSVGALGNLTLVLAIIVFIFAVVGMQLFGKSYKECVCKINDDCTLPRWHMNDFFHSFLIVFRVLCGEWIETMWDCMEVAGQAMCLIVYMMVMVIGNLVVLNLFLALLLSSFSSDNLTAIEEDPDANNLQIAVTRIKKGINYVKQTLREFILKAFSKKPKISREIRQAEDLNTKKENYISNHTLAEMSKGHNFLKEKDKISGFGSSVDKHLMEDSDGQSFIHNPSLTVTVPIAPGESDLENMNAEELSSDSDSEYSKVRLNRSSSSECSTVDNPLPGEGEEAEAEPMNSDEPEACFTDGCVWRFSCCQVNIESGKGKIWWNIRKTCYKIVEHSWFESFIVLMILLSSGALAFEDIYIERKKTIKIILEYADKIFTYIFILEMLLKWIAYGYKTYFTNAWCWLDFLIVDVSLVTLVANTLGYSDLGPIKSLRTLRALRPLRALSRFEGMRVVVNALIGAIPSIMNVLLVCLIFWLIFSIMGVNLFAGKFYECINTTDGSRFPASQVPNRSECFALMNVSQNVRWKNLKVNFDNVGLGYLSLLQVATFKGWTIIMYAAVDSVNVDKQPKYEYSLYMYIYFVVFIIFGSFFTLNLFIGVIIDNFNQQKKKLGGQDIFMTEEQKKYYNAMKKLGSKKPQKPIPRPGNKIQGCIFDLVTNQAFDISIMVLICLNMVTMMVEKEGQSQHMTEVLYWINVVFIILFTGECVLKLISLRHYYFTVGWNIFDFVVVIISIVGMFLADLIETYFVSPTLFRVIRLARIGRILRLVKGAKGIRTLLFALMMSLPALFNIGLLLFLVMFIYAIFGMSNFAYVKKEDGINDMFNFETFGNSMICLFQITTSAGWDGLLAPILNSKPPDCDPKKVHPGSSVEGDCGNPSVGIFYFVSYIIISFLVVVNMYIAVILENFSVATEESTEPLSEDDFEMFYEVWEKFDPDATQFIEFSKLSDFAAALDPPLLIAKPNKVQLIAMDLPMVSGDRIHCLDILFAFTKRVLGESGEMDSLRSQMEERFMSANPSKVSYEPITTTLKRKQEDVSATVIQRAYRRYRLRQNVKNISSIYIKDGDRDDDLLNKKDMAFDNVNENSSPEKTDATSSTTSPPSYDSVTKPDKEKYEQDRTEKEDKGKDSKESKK

Compound | pIC50
COc1cc(-c2cc(C)cc(F)c2)c(F)cc1-n1c(=O)ccc2cc(S(=O)(=O)Nc3ccon3)ccc21 | 8.10
COCc1cc(NS(=O)(=O)c2ccc3c(ccc(=O)n3-c3cc(F)c(Br)cc3OC)c2)ncn1 | 5.34
COc1cc(-c2cccc(C(F)F)c2)c(F)cc1-n1c(=O)ccc2cc(S(=O)(=O)Nc3ccon3)ccc21 | 7.46
COc1cc(-c2cc(Cl)ccn2)c(F)cc1-n1c(=O)ccc2cc(S(=O)(=O)Nc3ccon3)ccc21 | 7.03
COc1cc(CC2CCCCC2)c(F)cc1-n1c(=O)ccc2cc(S(=O)(=O)Nc3ncon3)ccc21 | 7.52
CCc1nccc(NS(=O)(=O)c2ccc3c(ccc(=O)n3-c3cc(F)c(Br)cc3OC)c2)n1 | 6.91
COc1cc(-c2cc(F)cc(OC(F)F)c2)c(F)cc1-n1c(=O)ccc2cc(S(=O)(=O)Nc3ccon3)ccc21 | 7.96
COc1cc(-c2ccc(-n3c(=O)ccc4cc(S(=O)(=O)Nc5cccnn5)ccc43)c(OC)c2)ccc1C | 6.84
CCc1nccc(NS(=O)(=O)c2ccc3c(ccc(=O)n3-c3cc(F)c(-c4cc(F)cc(Cl)c4)cc3OC)c2)n1 | 5.10
COc1cc(-c2ccc(-n3c(=O)ccc4cc(S(=O)(=O)Nc5ncc(F)cn5)ccc43)c(OC)c2)ccc1C | 6.78
COc1cc(C(F)(F)F)c(Cl)cc1-n1c(=O)ccc2cc(S(=O)(=O)Nc3ccncn3)ccc21 | 6.91
Cc1cc(-c2cc(C)c(-n3c(=O)ccc4cc(S(=O)(=O)Nc5ccncn5)ccc43)cc2F)ccc1Cl | 6.16
COc1cc(-c2ccc(F)c(OC(F)F)c2)c(F)cc1-n1c(=O)ccc2cc(S(=O)(=O)Nc3ccon3)ccc21 | 7.66
COc1cc(Br)c(F)cc1-n1c(=O)ccc2cc(S(=O)(=O)Nc3ccnc(C)n3)ccc21 | 5.52
COc1cc(-c2ccc(Cl)c(C)c2)ccc1-n1c(=O)ccc2cc(S(=O)(=O)Nc3ncon3)ccc21 | 7.52
COc1ccc(CC(=O)OC(C)(C)C)cc1-n1c(=O)ccc2cc(S(=O)(=O)Nc3ccon3)ccc21 | 5.70
COc1cc(-c2ccc(-n3c(=O)ccc4cc(S(=O)(=O)Nc5ccnc(C)n5)ccc43)c(OC)c2)ccc1C | 6.53
COc1cc(Br)c(F)cc1-n1c(=O)ccc2cc(S(=O)(=O)Nc3cc(C)ncn3)ccc21 | 5.98
COc1cc(-c2ccc(Cl)cc2)ccc1-n1c(=O)ccc2cc(S(=O)(=O)Nc3ncccn3)ccc21 | 7.02

Compound | pIC50
COc1cc(C2CCCC2)c(F)cc1-n1c(=O)ccc2cc(S(=O)(=O)Nc3ccon3)ccc21 | 7.06
COc1cc(C#CC(C)(C)OC)c(F)cc1-n1c(=O)ccc2cc(S(=O)(=O)Nc3ccon3)ccc21 | 6.43
COc1cc(-c2ccc(C#N)c(C)c2)c(F)cc1-n1c(=O)ccc2cc(S(=O)(=O)Nc3ccon3)ccc21 | 7.04
COc1cc(-c2ccc(-n3c(=O)ccc4cc(S(=O)(=O)Nc5ncccn5)ccc43)c(OC)c2)ccc1C | 6.61
COc1cc(C2CCOCC2)c(F)cc1-n1c(=O)ccc2cc(S(=O)(=O)Nc3ccon3)ccc21 | 5.51
COc1cc(Br)c(F)cc1-n1c(=O)ccc2cc(S(=O)(=O)Nc3nccc(C)n3)ccc21 | 5.81
COc1cc(C2CC2)c(Cl)cc1-n1c(=O)ccc2cc(S(=O)(=O)Nc3ccon3)ccc21 | 6.32
COc1cc(-c2ccc(F)cc2)c(F)cc1-n1c(=O)ccc2cc(S(=O)(=O)Nc3ncccn3)ccc21 | 6.71
COc1cc(OC)cc(-c2cc(OC)c(-n3c(=O)ccc4cc(S(=O)(=O)Nc5ccon5)ccc43)cc2F)c1 | 7.92
COc1cc(-c2ccc(-n3c(=O)ccc4cc(S(=O)(=O)Nc5cc(C)ncn5)ccc43)c(OC)c2)ccc1C | 6.70
COc1cc(-c2cc(Cl)cnc2OC)c(F)cc1-n1c(=O)ccc2cc(S(=O)(=O)Nc3ccon3)ccc21 | 7.62
COc1ccc(-c2ccc(F)nc2)cc1-n1c(=O)ccc2cc(S(=O)(=O)Nc3ccon3)ccc21 | 6.04
COc1cc(-c2ccccn2)c(F)cc1-n1c(=O)ccc2cc(S(=O)(=O)Nc3ccon3)ccc21 | 6.05
COc1cc(NS(=O)(=O)c2ccc3c(ccc(=O)n3-c3cc(F)c(Br)cc3OC)c2)ncn1 | 6.51
COc1cc(C#CC2(C)COC2)c(F)cc1-n1c(=O)ccc2cc(S(=O)(=O)Nc3ccon3)ccc21 | 5.81
COc1cc(-c2ccc(Cl)c(C)c2)c(F)cc1-n1c(=O)cnc2cc(S(=O)(=O)Nc3ncccn3)ccc21 | 7.64 and 8.22
COc1ccc(-c2cc(OC)c(-n3c(=O)ccc4cc(S(=O)(=O)Nc5ccon5)ccc43)cc2F)cc1Cl | 7.60
COc1cc(-c2ccc(Cl)cc2)ccc1-n1c(=O)ccc2cc(S(=O)(=O)Nc3ccon3)ccc21 | 7.66

The remaining lines, values ahead:

pIC50 | Compound
8.05 | COc1cc(-c2cc(F)cc(C(F)(F)F)c2)ccc1-n1c(=O)ccc2cc(S(=O)(=O)Nc3ccon3)ccc21
7.66 | COc1cc(C#CC2CCCC2)c(F)cc1-n1c(=O)ccc2cc(S(=O)(=O)Nc3ccon3)ccc21
7.80 | COc1cc(-c2ccc(F)c(F)c2)c(F)cc1-n1c(=O)ccc2cc(S(=O)(=O)Nc3cccnn3)ccc21
8.00 | COc1cc(Cl)cc(-c2ccc(-n3c(=O)ccc4cc(S(=O)(=O)Nc5ccon5)ccc43)c(OC)c2)c1
7.55 | COc1cc(-c2cccc(OC(F)F)c2)c(F)cc1-n1c(=O)ccc2cc(S(=O)(=O)Nc3ccnc(C)n3)ccc21
7.19 | COc1cc(OC)cc(-c2cc(OC)c(-n3c(=O)ccc4cc(S(=O)(=O)Nc5ncccn5)ccc43)cc2F)c1
7.43 | COc1cc(-c2cc(F)cc(C(F)(F)F)c2)ccc1-n1c(=O)ccc2cc(S(=O)(=O)Nc3ncco3)ccc21
7.89 | COc1cc(-c2ccc(Cl)c(C)c2)c(F)cc1-n1c(=O)ccc2cc(S(=O)(=O)Nc3ccon3)c(F)cc21
7.31 | COc1cc(NS(=O)(=O)c2ccc3c(ccc(=O)n3-c3cc(F)c(-c4cc(F)cc(Cl)c4)cc3OC)c2)ncn1
7.64 | COc1cc(-c2cccc(OC(F)F)c2)c(F)cc1-n1c(=O)ccc2cc(S(=O)(=O)Nc3ncccn3)ccc21
8.30 | COc1cc(Cl)cc(-c2cc(OC)c(-n3c(=O)ccc4cc(S(=O)(=O)Nc5ncccn5)ccc43)cc2C)c1
7.14 | COc1cc(-c2cc(Cl)cnc2OC)c(F)cc1-n1c(=O)ccc2cc(S(=O)(=O)Nc3ncccn3)ccc21
7.46 | COc1cc(-c2cc(F)cc(C(F)(F)F)c2)ccc1-n1c(=O)ccc2cc(S(=O)(=O)Nc3ncc(F)cn3)ccc21
8.05 | COc1cc(-c2ccc(Cl)c(C)c2)ccc1-n1c(=O)ccc2cc(S(=O)(=O)Nc3ncco3)ccc21
7.41 | COc1cc(CC2CCCCC2)c(F)cc1-n1c(=O)ccc2cc(S(=O)(=O)Nc3ncccn3)ccc21
7.28 | COc1nc(OCC2CCCCC2)c(Cl)cc1-n1c(=O)ccc2cc(S(=O)(=O)Nc3ccon3)ccc21

pIC50 | Compound
7.31 | COc1cc(Oc2ccc(F)cc2)ccc1-n1c(=O)ccc2cc(S(=O)(=O)Nc3ccon3)ccc21
7.92 | COc1cc(-c2cc(Cl)ccc2C)ccc1-n1c(=O)ccc2cc(S(=O)(=O)Nc3ncccn3)ccc21
8.00 | COc1cc(-c2cc(OC)c(-n3c(=O)ccc4cc(S(=O)(=O)Nc5cccnn5)ccc43)cc2F)ccc1Cl
8.30 | COc1cc(-c2ccc(Cl)c(C)c2)c(F)cc1-n1c(=O)ccc2cc(S(=O)(=O)Nc3ccncn3)ccc21
7.80 | COc1cc(Cl)ccc1-c1cc(OC)c(-n2c(=O)ccc3cc(S(=O)(=O)Nc4ccon4)ccc32)cc1F
7.85 | COc1cc(-c2cc(F)cc(Cl)c2)c(F)cc1-n1c(=O)ccc2cc(S(=O)(=O)Nc3ncco3)ccc21
8.00 | COc1cc(-c2cccc(C(F)(F)F)c2)c(F)cc1-n1c(=O)ccc2cc(S(=O)(=O)Nc3cc(C)ncn3)ccc21
7.96 | COc1cc(CC2CCCC2)c(F)cc1-n1c(=O)ccc2cc(S(=O)(=O)Nc3ccon3)ccc21
7.28 | COc1cc(Cl)cc(-c2ccc(-n3c(=O)cnc4cc(S(=O)(=O)Nc5ccon5)ccc43)c(OC)c2)c1
8.05 | COc1cc(-c2ccc(F)cc2)c(F)cc1-n1c(=O)ccc2cc(S(=O)(=O)Nc3ccon3)ccc21
8.00 | COc1cc(-c2cccc(C(F)(F)F)c2)c(F)cc1-n1c(=O)ccc2cc(S(=O)(=O)Nc3ncccn3)ccc21
7.12 | COc1cc(-c2ccc(F)c(F)c2)ccc1-n1c(=O)ccc2cc(S(=O)(=O)Nc3ncc(F)cn3)ccc21
7.08 | COc1cc(OC)cc(-c2cc(OC)c(-n3c(=O)ccc4cc(S(=O)(=O)Nc5cccnn5)ccc43)cc2F)c1
7.48 | COc1cc(OC)cc(-c2cc(OC)c(-n3c(=O)ccc4cc(S(=O)(=O)Nc5ncc(F)cn5)ccc43)cc2F)c1
7.68 | COc1cc(-c2ccc(-n3c(=O)ccc4cc(S(=O)(=O)Nc5ncccn5)ccc43)c(OC)c2)ccc1Cl
8.10 | COc1cc(C#CC2CCCC2)c(F)cc1-n1c(=O)ccc2cc(S(=O)(=O)Nc3cccnn3)ccc21
